# Tested on: Cotton Aphid
# Experiment: Seed Treatment Test vs. Cotton Aphid on Squash
# Type: in vivo, Aphis gossypii
# Method: Seed Treatment Test vs. Cotton Aphid on Squash
# Four-inch pots were filled two-thirds full with sieved soil mix (70 sand/30 pulverized soil). Compound was applied as a suspension to the center in 4 ml volume. Squash seed placed in the applied chemical zone was covered with soil mix 1 cm deep. […] The plants were then infested with aphids. Four days later, aphid counts were made.
SMILES,"% Ctrl., cotton aphid on Squash - 1st True Leaf (0.8 mg/pot)","Cotton aphid counts on Squash - 1st True Leaf, Mean (0.8 mg/pot)","% Ctrl., cotton aphid on Squash - cotyledon (0.8 mg/pot)","Cotton aphid counts on Squash - cotyledon, Mean (0.8 mg/pot)","% Ctrl., cotton aphid on Squash - 1st True Leaf (3.2 mg/pot)","Cotton aphid counts on Squash - 1st True Leaf, Mean (3.2 mg/pot)","% Ctrl., cotton aphid on Squash - cotyledon (3.2 mg/pot)","Cotton aphid counts on Squash - cotyledon, Mean (3.2 mg/pot)","% Ctrl., cotton aphid on Squash - 1st True Leaf (12.8 mg/pot)","Cotton aphid counts on Squash - 1st True Leaf, Mean (12.8 mg/pot)","% Ctrl., cotton aphid on Squash - cotyledon (12.8 mg/pot)","Cotton aphid counts on Squash - cotyledon, Mean (12.8 mg/pot)","% Ctrl., cotton aphid on Squash - 1st True Leaf (0.05 mg/pot)","Cotton aphid counts on Squash - 1st True Leaf, Mean (0.05 mg/pot)","% Ctrl., cotton aphid on Squash - cotyledon (0.05 mg/pot)","Cotton aphid counts on Squash - cotyledon, Mean (0.05 mg/pot)","% Ctrl., cotton aphid on Squash - 1st True Leaf (0.2 mg/pot)","Cotton aphid counts on Squash - 1st True Leaf, Mean (0.2 mg/pot)","% Ctrl., cotton aphid on Squash - cotyledon (0.2 mg/pot)","Cotton aphid counts on Squash - cotyledon, Mean (0.2 mg/pot)"
"Cn1nc(-c2c(F)cccc2Cl)nc1-c1sc(Cl)c(Cl)c1Cl [Compound 2, 3-(2-chloro-6-fluorophenyl)-5-(3,4,5-trichlorothien-2-yl)-1-methyl[1,2,4]triazole]",85.8%,12.0,54.4%,48.0,95.9%,3.5,93.1%,7.3,96.1%,3.3,93.3%,7.0,,,,,,,,
"Cn1nc(-c2c(Cl)cccc2Cl)nc1-c1sc(Cl)c(Cl)c1Cl [Compound 45, 3-(2,6-dichlorophenyl)-5-(3,4,5-trichlorothien-2-yl)-1-methyl[1,2,4]triazole]",51.7%,40.8,0%,165.5,77.8%,18.8,52.3%,50.3,90.2%,8.3,24.0%,80.0,,,,,,,,
"O=[N+]([O-])NC1=NCCN1Cc1ccc(Cl)nc1 [Imidacloprid, reference compound]",100.0%,0.0,100%,0,,,,,,,,,58.5%,35.0,97.6%,2.5,88.4%,9.8,100%,0
